Activity calls are given as the source filed them. No cut-off for these calls is given here.
Tests used:
[1] = target: Amyloid-beta precursor protein (Homo sapiens) (UniProt P05067); details: at 10 µM
Description: Inhibition of amyloid beta (1 to 42) (unknown origin) aggregation at 10 uM expressed in Escherichia coli BL21 (DE3) incubated for 24 hrs by thioflavin T-based fluorometric assay relative to control

[2] = target: Microtubule-associated protein tau (Homo sapiens) (UniProt P10636); assay: Inhibition of tau aggregation (unknown origin) at 10 uM expressed in Escherichia coli BL21 (DE3) incubated for 24 hrs by thioflavin T-based fluorometric assay relative to control
[3] = target: T1, Beta-secretase 1 (Homo sapiens, UniProt P56817)
[4] = target: Cholinesterase (Equus caballus) (UniProt P81908); assay: Inhibition of equine serum BuChE at 10 uM using butyrylthiocholine chloride as substrate pre-incubated for 5 mins followed by substrate addition and measured after 5 mins by Ellman's method relative to control
[5] = target: T1, Beta-secretase 1; details: 50 uM
[6] = target: Acetylcholinesterase (Electrophorus electricus) (UniProt O42275); assay: Inhibition of Electrophorus electricus AChE at 10 uM using acetylthiocholine iodide as substrate preincubated for 5 mins followed by substrate addition and measured after 5 mins by Ellman's method relative to control
[7] = Antioxidant activity assessed as increase in total ferric ion reducing activity at 150 uM using FeCl3.H2O and TPTZ incubated for 30 mins by FRAP assay relative to control; format: functional; design: scale not given: the % may be the effect or the level left
[8] = Antioxidant activity assessed as increase in total ferric ion reducing activity at 150 uM using FeCl3.H2O and TPTZ incubated for 5 mins by FRAP assay relative to control; format: functional; design: scale not given: the % may be the effect or the level left
[9] = Antioxidant activity assessed as increase in total ferric ion reducing activity at 30 uM using FeCl3.H2O and TPTZ incubated for 60 mins by FRAP assay relative to control; format: functional; design: scale not given: the % may be the effect or the level left
[10] = Antioxidant activity assessed as ABTS radical scavenging activity at 30 uM measured after 5 mins by spectrophotometric assay relative to control; format: functional
[11] = Antioxidant activity assessed as ABTS radical scavenging activity at 75 uM measured after 60 mins by spectrophotometric assay relative to control; format: functional
[12] = Antioxidant activity assessed as increase in total ferric ion reducing activity at 75 uM using FeCl3.H2O and TPTZ incubated for 60 mins by FRAP assay relative to control; format: functional; design: scale not given: the % may be the effect or the level left
[13] = Antioxidant activity assessed as increase in total ferric ion reducing activity at 30 uM using FeCl3.H2O and TPTZ incubated for 30 mins by FRAP assay relative to control; format: functional; design: scale not given: the % may be the effect or the level left
[14] = Antioxidant activity assessed as ABTS radical scavenging activity at 30 uM measured after 30 mins by spectrophotometric assay relative to control; format: functional
[15] = Antioxidant activity assessed as increase in total ferric ion reducing activity at 75 uM using FeCl3.H2O and TPTZ incubated for 30 mins by FRAP assay relative to control; format: functional; design: scale not given: the % may be the effect or the level left
[16] = Antioxidant activity assessed as ABTS radical scavenging activity at 30 uM measured after 60 mins by spectrophotometric assay relative to control; format: functional
[17] = Antioxidant activity assessed as ABTS radical scavenging activity at 150 uM measured after 30 mins by spectrophotometric assay relative to control; format: functional
[18] = Antioxidant activity assessed as ABTS radical scavenging activity at 75 uM measured after 30 mins by spectrophotometric assay relative to control; format: functional
[19] = Antioxidant activity assessed as ABTS radical scavenging activity at 150 uM measured after 60 mins by spectrophotometric assay relative to control; format: functional
[20] = Metal chelating activity assessed as Cu2+-compound complex formation at 50 uM after 30 mins by UV-Visible spectrophotometric method
[21] = Antioxidant activity assessed as increase in total ferric ion reducing activity at 150 uM using FeCl3.H2O and TPTZ incubated for 60 mins by FRAP assay relative to control; format: functional; design: scale not given: the % may be the effect or the level left
[22] = Antioxidant activity assessed as ABTS radical scavenging activity at 150 uM measured after 5 mins by spectrophotometric assay relative to control; format: functional
[23] = Antioxidant activity assessed as increase in total ferric ion reducing activity at 30 uM using FeCl3.H2O and TPTZ incubated for 5 mins by FRAP assay relative to control; format: functional; design: scale not given: the % may be the effect or the level left
[24] = Antioxidant activity assessed as ABTS radical scavenging activity at 75 uM measured after 5 mins by spectrophotometric assay relative to control; format: functional
[25] = Antioxidant activity assessed as increase in total ferric ion reducing activity at 75 uM using FeCl3.H2O and TPTZ incubated for 5 mins by FRAP assay relative to control; format: functional; design: scale not given: the % may be the effect or the level left
[26] = target: Amyloid-beta precursor protein (Homo sapiens) (UniProt P05067); assay: Inhibition of HFIP-pretreated amyloid beta (1 to 42) (unknown origin) aggregation at 10 uM after 48 hrs measured every 3 mins by thioflavin T-based fluorometric assay relative to control
[27] = target: T1, Beta-secretase 1; assay: Inhibition of BACE1 (unknown origin)
[28] = target: T2, Cholinesterase (Equus caballus, UniProt P81908); assay: Inhibition of equine BuChE
[29] = target: T2, Cholinesterase
Description: Inhibition of equine serum BuChE using butyrylthiocholine chloride as substrate pre-incubated for 5 mins followed by substrate addition and measured after 5 mins by Ellman's method

Sequence of Amyloid-beta precursor protein (Homo sapiens) (P05067 whole entry): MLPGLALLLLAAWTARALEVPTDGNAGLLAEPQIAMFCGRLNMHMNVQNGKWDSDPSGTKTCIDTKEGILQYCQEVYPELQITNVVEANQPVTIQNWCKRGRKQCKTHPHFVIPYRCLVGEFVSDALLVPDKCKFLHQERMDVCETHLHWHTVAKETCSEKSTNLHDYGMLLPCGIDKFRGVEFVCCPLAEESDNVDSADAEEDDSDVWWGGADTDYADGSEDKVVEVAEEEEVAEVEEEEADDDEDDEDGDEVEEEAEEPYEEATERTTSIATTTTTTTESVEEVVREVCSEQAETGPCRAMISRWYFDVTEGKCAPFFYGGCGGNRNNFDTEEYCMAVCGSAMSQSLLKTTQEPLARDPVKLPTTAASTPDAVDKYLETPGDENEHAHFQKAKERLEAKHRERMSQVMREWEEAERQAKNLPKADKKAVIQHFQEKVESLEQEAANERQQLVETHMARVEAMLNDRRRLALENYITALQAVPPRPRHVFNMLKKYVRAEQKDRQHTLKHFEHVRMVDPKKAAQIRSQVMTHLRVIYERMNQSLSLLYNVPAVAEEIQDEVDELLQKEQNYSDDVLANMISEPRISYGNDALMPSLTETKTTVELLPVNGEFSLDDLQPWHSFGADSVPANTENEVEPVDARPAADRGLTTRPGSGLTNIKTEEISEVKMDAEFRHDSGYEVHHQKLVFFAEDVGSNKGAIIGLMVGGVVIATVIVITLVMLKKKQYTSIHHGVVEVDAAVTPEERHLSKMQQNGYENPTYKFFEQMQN
T2 sequence (P81908 whole entry): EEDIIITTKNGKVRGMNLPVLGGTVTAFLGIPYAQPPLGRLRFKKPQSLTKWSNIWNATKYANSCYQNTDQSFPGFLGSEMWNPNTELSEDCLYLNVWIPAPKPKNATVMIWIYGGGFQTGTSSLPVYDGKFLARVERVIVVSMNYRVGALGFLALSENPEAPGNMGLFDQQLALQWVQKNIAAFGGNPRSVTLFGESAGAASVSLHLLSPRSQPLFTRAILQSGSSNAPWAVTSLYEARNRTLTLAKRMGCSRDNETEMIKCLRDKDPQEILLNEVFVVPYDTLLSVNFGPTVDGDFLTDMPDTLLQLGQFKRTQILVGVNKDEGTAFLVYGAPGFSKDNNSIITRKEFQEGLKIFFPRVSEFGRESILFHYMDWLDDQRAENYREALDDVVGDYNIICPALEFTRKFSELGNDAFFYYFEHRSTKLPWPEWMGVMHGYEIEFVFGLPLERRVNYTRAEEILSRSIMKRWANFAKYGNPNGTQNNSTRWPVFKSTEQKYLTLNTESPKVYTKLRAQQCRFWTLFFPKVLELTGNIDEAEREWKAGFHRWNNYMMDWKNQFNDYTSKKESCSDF
Sequence of Cholinesterase (Equus caballus) (P81908 whole entry): as above
T1 sequence (P56817 whole entry): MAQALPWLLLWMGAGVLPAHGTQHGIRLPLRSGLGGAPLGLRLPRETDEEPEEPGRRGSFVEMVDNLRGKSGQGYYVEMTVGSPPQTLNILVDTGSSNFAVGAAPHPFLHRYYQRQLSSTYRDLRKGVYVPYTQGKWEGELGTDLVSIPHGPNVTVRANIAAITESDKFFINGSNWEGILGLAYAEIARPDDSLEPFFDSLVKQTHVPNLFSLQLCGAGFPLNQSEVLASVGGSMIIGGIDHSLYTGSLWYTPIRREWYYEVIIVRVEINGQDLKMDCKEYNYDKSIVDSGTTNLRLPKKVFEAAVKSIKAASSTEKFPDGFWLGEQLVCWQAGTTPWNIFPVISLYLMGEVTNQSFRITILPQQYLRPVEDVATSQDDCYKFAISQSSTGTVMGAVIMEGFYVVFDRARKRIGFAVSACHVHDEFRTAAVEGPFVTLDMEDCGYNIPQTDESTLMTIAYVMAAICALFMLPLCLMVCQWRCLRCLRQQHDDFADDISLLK
Sequence of Acetylcholinesterase (Electrophorus electricus) (O42275 24-633 limits assumed): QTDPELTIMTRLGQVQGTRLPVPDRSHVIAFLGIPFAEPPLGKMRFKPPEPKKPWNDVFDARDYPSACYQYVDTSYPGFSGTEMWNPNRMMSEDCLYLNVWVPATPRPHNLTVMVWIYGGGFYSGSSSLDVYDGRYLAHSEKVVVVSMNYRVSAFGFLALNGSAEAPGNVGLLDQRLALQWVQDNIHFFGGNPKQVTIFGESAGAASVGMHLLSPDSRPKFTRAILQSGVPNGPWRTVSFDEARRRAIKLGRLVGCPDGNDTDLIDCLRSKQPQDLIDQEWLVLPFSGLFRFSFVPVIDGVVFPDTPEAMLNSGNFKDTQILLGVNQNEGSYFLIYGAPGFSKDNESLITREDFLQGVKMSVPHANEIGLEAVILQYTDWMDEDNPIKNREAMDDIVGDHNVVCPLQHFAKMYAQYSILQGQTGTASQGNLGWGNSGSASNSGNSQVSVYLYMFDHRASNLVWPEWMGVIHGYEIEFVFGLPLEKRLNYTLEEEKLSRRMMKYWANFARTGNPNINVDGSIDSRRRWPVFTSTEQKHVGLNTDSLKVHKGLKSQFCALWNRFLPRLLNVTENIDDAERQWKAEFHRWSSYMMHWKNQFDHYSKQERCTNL
Sequence of Microtubule-associated protein tau (Homo sapiens) (P10636 whole entry): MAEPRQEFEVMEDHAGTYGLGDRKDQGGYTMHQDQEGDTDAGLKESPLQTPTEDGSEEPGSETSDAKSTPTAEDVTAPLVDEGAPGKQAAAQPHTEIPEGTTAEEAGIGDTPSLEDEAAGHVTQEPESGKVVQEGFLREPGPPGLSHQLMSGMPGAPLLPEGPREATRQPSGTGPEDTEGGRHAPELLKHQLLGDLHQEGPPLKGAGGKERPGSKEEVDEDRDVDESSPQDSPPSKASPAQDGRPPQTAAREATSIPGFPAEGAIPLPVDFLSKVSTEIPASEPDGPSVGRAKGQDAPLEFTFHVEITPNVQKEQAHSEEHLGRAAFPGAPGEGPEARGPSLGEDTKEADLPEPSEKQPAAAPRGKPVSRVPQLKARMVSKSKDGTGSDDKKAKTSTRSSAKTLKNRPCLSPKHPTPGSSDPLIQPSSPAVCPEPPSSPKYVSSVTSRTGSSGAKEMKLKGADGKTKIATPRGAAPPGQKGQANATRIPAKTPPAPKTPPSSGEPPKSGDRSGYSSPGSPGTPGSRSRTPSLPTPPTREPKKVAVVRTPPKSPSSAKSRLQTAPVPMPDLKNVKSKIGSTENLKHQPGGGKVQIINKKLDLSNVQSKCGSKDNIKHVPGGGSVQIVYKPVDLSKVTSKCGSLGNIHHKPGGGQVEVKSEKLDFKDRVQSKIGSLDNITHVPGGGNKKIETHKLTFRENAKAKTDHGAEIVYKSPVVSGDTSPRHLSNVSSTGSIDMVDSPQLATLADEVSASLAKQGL

## c1ccc(CN2CCC(NCCN3CCC(C(c4ccccc4)c4ccccc4)CC3)C2)cc1 (stereo not drawn)
[1]
  inhibition: 31.7%
[2]
  inhibition: 60.4%
[3]
  IC50: 49.8 µM
[4]
  inhibition: 44.2%
[5]
  inhibition: 54.3%
[6]
  inhibition: 25.2%

## c1ccc(CN2CCC(NCCN3CCN(C(c4ccccc4)c4ccccc4)CC3)C2)cc1 (stereo not drawn)
[7]
  Activity: 21%
[8]
  Activity: 19%
[9]
  Activity: 11%
[1]
  inhibition: 31.6%
[10]
  Activity: 22%
[2]
  inhibition: 64%
[11]
  Activity: 59%
[12]
  Activity: 12%
[4]
  inhibition: 46.2%
[13]
  Activity: 8%
[14]
  Activity: 41%
[15]
  Activity: 10%
[5]
  inhibition: 34.2%
[16]
  Activity: 47%
[17]
  Activity: 77%
[18]
  Activity: 52%
[19]
  Activity: 84%
[20]
  Activity: Active
[6]
  inhibition: 27.6%
[21]
  Activity: 25%
[22]
  Activity: 51%
[23]
  Activity: 4%
[24]
  Activity: 29%
[25]
  Activity: 4%
[26]
  inhibition: 27.7%

## Cc1c(OCc2ccccc2)cccc1N1CCN(CC(=O)NC2CCN(Cc3ccccc3)C2)CC1 (stereo not drawn)
[27]
  IC50: 33 µM
[20]
  Activity: Active
[28]
  IC50: 76 µM

## c1ccc(CN2CCN(CCNC3CCN(Cc4ccccc4)C3)CC2)cc1 (stereo not drawn)
[7]
  Activity: 48%
[8]
  Activity: 45%
[9]
  Activity: 15%
[1]
  inhibition: 37.9%
[10]
  Activity: 18%
[2]
  inhibition: 60.6%
[11]
  Activity: 58%
[12]
  Activity: 30%
[4]
  inhibition: 36.7%
[13]
  Activity: 13%
[14]
  Activity: 36%
[15]
  Activity: 27%
[5]
  inhibition: 13.6%
[16]
  Activity: 43%
[17]
  Activity: 84%
[18]
  Activity: 50%
[19]
  Activity: 93%
[20]
  Activity: Active
[6]
  inhibition: < 10%
[21]
  Activity: 51%
[22]
  Activity: 54%
[23]
  Activity: 9%
[24]
  Activity: 26%
[25]
  Activity: 17%
[26]
  inhibition: 19.2%

## O=C(CN1CCC(Cc2ccccc2)CC1)NC1CCN(Cc2ccccc2)C1 (stereo not drawn)
[7]
  Activity: 6%
[8]
  Activity: 5%
[9]
  Activity: 4%
[1]
  inhibition: 35%
[10]
  Activity: 7%
[2]
  inhibition: 66.8%
[11]
  Activity: 14%
[12]
  Activity: 6%
[4]
  inhibition: 36.1%
[13]
  Activity: 16%
[14]
  Activity: 9%
[15]
  Activity: 5%
[5]
  inhibition: 55.6%
[16]
  Activity: 10%
[17]
  Activity: 20%
[18]
  Activity: 12%
[19]
  Activity: 27%
[6]
  inhibition: < 10%
[21]
  Activity: 8%
[22]
  Activity: 11%
[23]
  Activity: 5%
[24]
  Activity: 8%
[25]
  Activity: 2%
[26]
  inhibition: 22.1%

## c1ccc(CC2CCN(CCNC3CCN(Cc4ccccc4)C3)CC2)cc1 (stereo not drawn)
[7]
  Activity: 20%
[8]
  Activity: 13%
[9]
  Activity: 3%
[1]
  inhibition: 36.6%
[10]
  Activity: 9%
[2]
  inhibition: 61%
[11]
  Activity: 27%
[12]
  Activity: 13%
[13]
  Activity: 2%
[14]
  Activity: 12%
[15]
  Activity: 11%
[5]
  inhibition: < 10%
[16]
  Activity: 17%
[17]
  Activity: 43%
[18]
  Activity: 21%
[19]
  Activity: 55%
[20]
  Activity: Active
[6]
  inhibition: 21.2%
[29]
  IC50: 0.62 µM
[21]
  Activity: 22%
[22]
  Activity: 21%
[23]
  Activity: 1%
[24]
  Activity: 11%
[25]
  Activity: 6%

## O=C(CN1CCC(C(c2ccccc2)c2ccccc2)CC1)NC1CCN(Cc2ccccc2)C1 (stereo not drawn)
[1]
  inhibition: 53.3%
[2]
  inhibition: 64.3%
[3]
  IC50: 55.2 µM
[4]
  inhibition: 24.6%
[5]
  inhibition: 52.2%
[6]
  inhibition: < 10%
[26]
  inhibition: 35.3%

## c1ccc(CCC2CCCN(CCNC3CCN(Cc4ccccc4)C3)C2)cc1 (stereo not drawn)
[7]
  Activity: 9%
[8]
  Activity: 9%
[9]
  Activity: 7%
[1]
  inhibition: 41.3%
[10]
  Activity: 12%
[2]
  inhibition: 57.2%
[11]
  Activity: 36%
[12]
  Activity: 4%
[13]
  Activity: 6%
[14]
  Activity: 18%
[15]
  Activity: 3%
[5]
  inhibition: 42.6%
[16]
  Activity: 25%
[17]
  Activity: 60%
[18]
  Activity: 26%
[19]
  Activity: 76%
[20]
  Activity: Active
[6]
  inhibition: 38.5%
[29]
  IC50: 3.26 µM
[21]
  Activity: 11%
[22]
  Activity: 33%
[23]
  Activity: 4%
[24]
  Activity: 12%
[25]
  Activity: 2%

Reference: ChEMBL document CHEMBL4376850, “1-Benzylpyrrolidine-3-amine-based BuChE inhibitors with anti-aggregating, antioxidant and metal-chelating properties as multifunctional agents against Alzheimer's disease” (Eur J Med Chem, 2020)
